# “Also recorded” adds a separate entry of the source.
# Columns and labels:
# Format in all cases: in vivo, human
# lymphatic malformations = experiment: Pilot study: sildenafil for 12 weeks in two children with disabling LMs
# Protocol: Based on the observation of marked regression in a lymphatic malformation after starting sildenafil, a pilot study to treat otherwise healthy children with LMs with sildenafil was approved by the Stanford University Human Research Protection Program (IRB). After informed consent was obtained, sildenafil (goal dose 1.0 mg/kg/dose TID) was administered to two children with disabling LMs for 12 weeks, and results are summarized in Table 1.
# lymphatic malformation [1] = experiment: Index patient: infant with microcystic venolymphatic malformation given sildenafil for pulmonary hypertension
# Text: FIG. 1, Panels A-B depict pre- and post-treatment magnetic resonance imaging (MRI) contrast-enhanced images of a subject with a lymphatic malformation treated in accord with the subject methods. […] Contrast highlights the heart with right ventricular enlargement (dashed arrow), aorta, and pulmonary vessels.
# An infant was born with massive enlargement of their right chest and arm. […], the infant developed tachypnea due to congestive heart failure and pulmonary edema. […] At 9 months, cardiac catheterization confirmed the diagnosis of idiopathic pulmonary hypertension and sildenafil was started (initially 0.5 mg/kg/dose TID and titrated to 0.75 mg/kg/dose TID). […] The post-MRI course was complicated by worsening cardiopulmonary interactions, respiratory failure and subsequent cardiac failure leading to their death.
# lymphatic malformation [2] = experiment: Clinical trial: MRI before and after 20 weeks of sildenafil; conditions: for volume of the lymphatic malformation after 20 weeks: MRI; for decrease of the volume of the lymphatic malformation: over 20 weeks
# Protocol: An additional 7 subjects were enrolled into a clinical trial. Sildenafil was administered substantially as described above in Examples 1-2. […] Three subjects completed the 20 week trial and had the follow up MRI completed; the remaining four subjects are still undergoing the trial.
# [3] = Subject 1, LM of left orbit, upper and lower eyelids
# [4] = Subject 2, LM of right axilla, after 12 weeks of treatment (FIG. 3, Panel B)
# [5] = Subject 2, LM of right axilla, chest
# [6] = Subject 2, LM of right upper back
structure (smiles),measurement,setting,value
CCCc1nn(C)c2c(=O)[nH]c(-c3cc(S(=O)(=O)N4CCN(C)CC4)ccc3OCC)nc12 [sildenafil],change of the lesion after stopping the medication,lymphatic malformations; Subject 1,enlargement of the lesion
same,Adverse effects,"lymphatic malformations; Subject 1, 12 weeks of therapy",Loose yellow
same,clinical change of eyelid LM,"lymphatic malformations; Subject 1, after 3 weeks of therapy",improved eye opening and definition of the upper eyelid fold and superior palpebral sulcus
same,improvement of LM,"lymphatic malformations; Subject 1, at the end of treatment (12 weeks)",25%
same,Change in LM 4 weeks after discontinuing therapy,lymphatic malformations; [3],Enlargement
same,Parent impression of change in LM after 12 weeks of therapy,lymphatic malformations; [3],Fair
same,Adverse effects,"lymphatic malformations; Subject 2, 12 weeks of therapy",None
same,consistency of the lesion,lymphatic malformations; [4],softer and saggier
same,reduction in diameter of the lesion,lymphatic malformations; [4],1 cm
same,improvement of LMs,"lymphatic malformations; Subject 2, after 8 weeks of treatment",50%
same,improvement of LMs,"lymphatic malformations; Subject 2, after 12 weeks of treatment",75%
same,appearance of the large LM affecting the back,"lymphatic malformations; Subject 2, at the 12 week visit (FIG. 2, Panel C)",appeared deflated
same,change of the LMs after stopping the medication,"lymphatic malformations; Subject 2, four weeks after stopping (FIG. 2, Panel D)",mild enlargement
same,Change in LM 4 weeks after discontinuing therapy,"lymphatic malformations; Subject 2, LM of left forearm",Stable
same,Parent impression of change in LM after 12 weeks of therapy,"lymphatic malformations; Subject 2, LM of left forearm",Good
same,Change in LM 4 weeks after discontinuing therapy,lymphatic malformations; [5],Stable
same,Parent impression of change in LM after 12 weeks of therapy,lymphatic malformations; [5],Good
same,Change in LM 4 weeks after discontinuing therapy,lymphatic malformations; [6],Enlargement
same,Parent impression of change in LM after 12 weeks of therapy,lymphatic malformations; [6],Good
same,tolerability,"lymphatic malformations; two children, 12 weeks, goal dose 1.0 mg/kg/dose TID",tolerated without significant adverse effects
same,MRI finding of the malformation after therapy,"lymphatic malformation [1]; cardiac MRI (FIG. 1, Panel B)",minimal residual lymphatic malformation; also recorded: near complete resolution of the malformation
same,role of sildenafil in the patient's death,lymphatic malformation [1]; death from respiratory and cardiac failure,not thought to play a role in their death
same,skin examination of the malformation,lymphatic malformation [1]; four months after starting sildenafil,"thin, bluish plaque and redundant tissue"
same,change in size of the malformation,"lymphatic malformation [1]; sildenafil, 0.5 titrated to 0.75 mg/kg/dose TID",gradually decreased in size
same,adverse events associated with the medication,lymphatic malformation [2]; 20 week trial,no adverse events
same,volume of the lymphatic malformation after 20 weeks,"lymphatic malformation [2]; first subject evaluated, 186 cc before sildenafil",174 cc
same,decrease of the volume of the lymphatic malformation,"lymphatic malformation [2]; first subject evaluated, 186 cc to 174 cc",6.45%
same,volume of the lymphatic malformation after 20 weeks,"lymphatic malformation [2]; second subject evaluated, 46.5 cc before sildenafil",42.7 cc
same,decrease of the volume of the lymphatic malformation,"lymphatic malformation [2]; second subject evaluated, 46.5 cc to 42.7 cc",8.17%
same,volume of the lymphatic malformation after 20 weeks,"lymphatic malformation [2]; third subject evaluated, 56.246 cc before sildenafil",51.732 cc
same,decrease of the volume of the lymphatic malformation,"lymphatic malformation [2]; third subject evaluated, 56.246 cc to 51.732 cc",8.03%

# Source: patent US8871781B2, “Methods and compositions for treating a subject for a lymphatic malformation” (The Board of Trustees of the Leland Stanford Junior …, priority 2011, dated 2014)
